From PubChem BioAssay (NCI)
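Tested at 5 concentrations; 48 h exposure; 96-well plates; endpoints linearly interpolated, else capped at highest concentration. Abbreviation: GI50, concentration required for 50% inhibition of growth. At the TGI there is no net growth.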

Key:
Assay in all cases: NCI-60 cell line screen, 48 h
EKVX NSCLC = tested on: EKVX NSCLC
UACC-62 melanoma = tested on: UACC-62 melanoma
OVCAR-4 ovarian = tested on: OVCAR-4 ovarian
U251 CNS = tested on: U251 CNS
SF-539 CNS = tested on: SF-539 CNS
OVCAR-5 ovarian = tested on: OVCAR-5 ovarian
MDA-MB-468 breast = tested on: MDA-MB-468 breast
SW-620 colon = tested on: SW-620 colon
HOP-92 NSCLC = tested on: HOP-92 NSCLC
DU-145 prostate = tested on: DU-145 prostate
ACHN renal = tested on: ACHN renal
OVCAR-3 ovarian = tested on: OVCAR-3 ovarian
HOP-62 NSCLC = tested on: HOP-62 NSCLC
NCI/ADR-RES ovarian = tested on: NCI/ADR-RES ovarian
HCT-116 colon = tested on: HCT-116 colon
RPMI-8226 leukemia = tested on: RPMI-8226 leukemia
KM12 colon = tested on: KM12 colon
COLO 205 colon = tested on: COLO 205 colon
UO-31 renal = tested on: UO-31 renal
LOX IMVI melanoma = tested on: LOX IMVI melanoma
HL-60(TB) leukemia = tested on: HL-60(TB) leukemia
T-47D breast = tested on: T-47D breast
BT-549 breast = tested on: BT-549 breast
HCC-2998 colon = tested on: HCC-2998 colon
RXF 393 renal = tested on: RXF 393 renal
MALME-3M melanoma = tested on: MALME-3M melanoma
HCT-15 colon = tested on: HCT-15 colon
786-0 renal = tested on: 786-0 renal
SK-OV-3 ovarian = tested on: SK-OV-3 ovarian
OVCAR-8 ovarian = tested on: OVCAR-8 ovarian
SNB-19 CNS = tested on: SNB-19 CNS
CCRF-CEM leukemia = tested on: CCRF-CEM leukemia
K-562 leukemia = tested on: K-562 leukemia
HT29 colon = tested on: HT29 colon
IGROV1 ovarian = tested on: IGROV1 ovarian
SK-MEL-5 melanoma = tested on: SK-MEL-5 melanoma
PC-3 prostate = tested on: PC-3 prostate
SF-268 CNS = tested on: SF-268 CNS
SN12C renal = tested on: SN12C renal
TK-10 renal = tested on: TK-10 renal
NCI-H226 lung = tested on: NCI-H226 lung
CAKI-1 renal = tested on: CAKI-1 renal
MCF7 breast = tested on: MCF7 breast
NCI-H522 lung = tested on: NCI-H522 lung
SR leukemia = tested on: SR leukemia
NCI-H460 lung = tested on: NCI-H460 lung
HS 578T breast = tested on: HS 578T breast
UACC-257 melanoma = tested on: UACC-257 melanoma
NCI-H23 lung = tested on: NCI-H23 lung
SNB-75 CNS = tested on: SNB-75 CNS
MDA-MB-231 breast = tested on: MDA-MB-231 breast
A549 NSCLC = tested on: A549 NSCLC
SK-MEL-28 melanoma = tested on: SK-MEL-28 melanoma
M14 melanoma = tested on: M14 melanoma
MDA-MB-435 = tested on: MDA-MB-435
SK-MEL-2 melanoma = tested on: SK-MEL-2 melanoma
A498 renal = tested on: A498 renal
SF-295 CNS = tested on: SF-295 CNS
MOLT-4 leukemia = tested on: MOLT-4 leukemia

COc1ccc(-c2cc(-c3cc(C(C)C)c(O)cc3C)nn2-c2ccc(S(N)(=O)=O)cc2)cc1
GI50 (EKVX NSCLC): 10.3 µM
TGI (EKVX NSCLC): 21.9 µM
GI50 (UACC-62 melanoma): 10.2 µM
TGI (UACC-62 melanoma): 22.1 µM
GI50 (OVCAR-4 ovarian): 13.6 µM
TGI (OVCAR-4 ovarian): 31 µM
GI50 (U251 CNS): 4.49 µM
TGI (U251 CNS): 16.5 µM
GI50 (SF-539 CNS): 3.63 µM
TGI (SF-539 CNS): 13.3 µM
GI50 (OVCAR-5 ovarian): 16.3 µM
TGI (OVCAR-5 ovarian): 29.8 µM
GI50 (MDA-MB-468 breast): 2.07 µM
TGI (MDA-MB-468 breast): 5.71 µM
GI50 (SW-620 colon): 6.44 µM
TGI (SW-620 colon): 20.4 µM
GI50 (HOP-92 NSCLC): 7.18 µM
TGI (HOP-92 NSCLC): 21.5 µM
GI50 (DU-145 prostate): 7.31 µM
TGI (DU-145 prostate): 19.8 µM
GI50 (ACHN renal): 11.7 µM
TGI (ACHN renal): 23.9 µM
GI50 (OVCAR-3 ovarian): 5.16 µM
TGI (OVCAR-3 ovarian): 17 µM
GI50 (HOP-62 NSCLC): 10.7 µM
TGI (HOP-62 NSCLC): 23.9 µM
GI50 (NCI/ADR-RES ovarian): 3.06 µM
TGI (NCI/ADR-RES ovarian): 11.4 µM
GI50 (HCT-116 colon): 6.17 µM
TGI (HCT-116 colon): 21.3 µM
GI50 (RPMI-8226 leukemia): 4.83 µM
TGI (RPMI-8226 leukemia): 32.8 µM
GI50 (KM12 colon): 3.76 µM
TGI (KM12 colon): 14.6 µM
GI50 (COLO 205 colon): 18.7 µM
TGI (COLO 205 colon): 34.1 µM
GI50 (UO-31 renal): 7.83 µM
TGI (UO-31 renal): 20.6 µM
GI50 (LOX IMVI melanoma): 5.47 µM
TGI (LOX IMVI melanoma): 18.1 µM
GI50 (HL-60(TB) leukemia): 3.53 µM
TGI (HL-60(TB) leukemia): 19.8 µM
GI50 (T-47D breast): 4.32 µM
TGI (T-47D breast): 21.3 µM
GI50 (BT-549 breast): 3.29 µM
TGI (BT-549 breast): 13.2 µM
GI50 (HCC-2998 colon): 11.4 µM
TGI (HCC-2998 colon): 23.6 µM
GI50 (RXF 393 renal): 5.76 µM
TGI (RXF 393 renal): 20.7 µM
GI50 (MALME-3M melanoma): 11.8 µM
TGI (MALME-3M melanoma): 24.3 µM
GI50 (HCT-15 colon): 3.69 µM
TGI (HCT-15 colon): 14.5 µM
GI50 (786-0 renal): 12.2 µM
TGI (786-0 renal): 25 µM
GI50 (SK-OV-3 ovarian): 13.8 µM
TGI (SK-OV-3 ovarian): 27.3 µM
GI50 (OVCAR-8 ovarian): 8.17 µM
TGI (OVCAR-8 ovarian): 23.2 µM
GI50 (SNB-19 CNS): 12.5 µM
TGI (SNB-19 CNS): 25 µM
GI50 (CCRF-CEM leukemia): 3.43 µM
TGI (CCRF-CEM leukemia): 26.3 µM
GI50 (K-562 leukemia): 2.82 µM
TGI (K-562 leukemia): 18 µM
GI50 (HT29 colon): 16.2 µM
TGI (HT29 colon): 30.2 µM
GI50 (IGROV1 ovarian): 13.4 µM
TGI (IGROV1 ovarian): 26.5 µM
GI50 (SK-MEL-5 melanoma): 11.1 µM
TGI (SK-MEL-5 melanoma): 23.3 µM
GI50 (PC-3 prostate): 10.3 µM
TGI (PC-3 prostate): 24.7 µM
GI50 (SF-268 CNS): 12.9 µM
TGI (SF-268 CNS): 28.6 µM
GI50 (SN12C renal): 12 µM
TGI (SN12C renal): 25.1 µM
GI50 (TK-10 renal): 15 µM
TGI (TK-10 renal): 28.4 µM
GI50 (NCI-H226 lung): 16.8 µM
TGI (NCI-H226 lung): 38.8 µM
GI50 (CAKI-1 renal): 5.59 µM
TGI (CAKI-1 renal): 19.2 µM
GI50 (MCF7 breast): 4.89 µM
TGI (MCF7 breast): 20 µM
GI50 (NCI-H522 lung): 3.15 µM
TGI (NCI-H522 lung): 13.7 µM
GI50 (SR leukemia): 1.91 µM
TGI (SR leukemia): 15.1 µM
GI50 (NCI-H460 lung): 8.42 µM
TGI (NCI-H460 lung): 22 µM
GI50 (HS 578T breast): 11.9 µM
TGI (HS 578T breast): 38.6 µM
GI50 (UACC-257 melanoma): 12.7 µM
TGI (UACC-257 melanoma): 25.7 µM
GI50 (NCI-H23 lung): 10.5 µM
TGI (NCI-H23 lung): 23 µM
GI50 (SNB-75 CNS): 6.08 µM
TGI (SNB-75 CNS): 18.6 µM
GI50 (MDA-MB-231 breast): 7.99 µM
TGI (MDA-MB-231 breast): 21 µM
GI50 (A549 NSCLC): 6.2 µM
TGI (A549 NSCLC): 20.6 µM
GI50 (SK-MEL-28 melanoma): 13 µM
TGI (SK-MEL-28 melanoma): 25.7 µM
GI50 (M14 melanoma): 11.3 µM
TGI (M14 melanoma): 25.1 µM
GI50 (MDA-MB-435): 2.22 µM
TGI (MDA-MB-435): 4.84 µM
GI50 (SK-MEL-2 melanoma): 13.7 µM
TGI (SK-MEL-2 melanoma): 26.9 µM
GI50 (A498 renal): 13.9 µM
TGI (A498 renal): 27.8 µM
GI50 (SF-295 CNS): 10.9 µM
TGI (SF-295 CNS): 22.8 µM
GI50 (MOLT-4 leukemia): 2.88 µM
TGI (MOLT-4 leukemia): 8.39 µM
